Marks after values point to notes of the source that are not given here. Peptide text beside a SMILES is read from it.
Tests used:
[1] = NTA-metal-affinity fluorescence assay, FITC-labeled IM3 (x2B a); format: binding; conditions: FITC-labeled IM3 1 ug/well
Experimental: NTA-metal-affinity fluorescence assay was performed using 96-well NTA-metal-coated plates readily available from commercial sources such as Qiagen (Germantown, MD). NTA was charged with ferrous or ferric iron, zinc, copper, calcium, vanadium, ruthenium, cobalt, titanium, manganese or other metals. 400 ng of FITC-labeled immodulator peptide (or biotinylated immodulator peptide complexed to Alexa-488-labeled streptavidin) in PBS buffer was added per plate. After incubation at room temperature for 60 minutes, excess peptide was washed off and peptide was detected by measuring fluorescence (excitation 490 nm, emmission 525 nm) in a fluorometer. • (a) Using FITC-labeled IM3 peptide (1 ug/well) in the fluorescent binding assay: • EDTA-treated control: 2,251±1,186 • Ferrous iron: 170,441±11,264 (p<0.001)* • Copper: 13,644±5566 (p<0.05)* • Calcium: 48,822±11,990 (p<0.01)* • *p values are relative to EDTA-treated control • (b) Competition binding assay to ferrous iron, calcium, copper and zinc-charged NTA-coated plates using FITC-labeled IM3 peptide (0.5 uM) and 8× (4 uM) unlabelled competitor peptides IM3N1, IM3N2 (*all comparisons to PBS control are p<0.01); # fluorescent value of binding to […] was set at 100.

NF-kappa-B (NFkB) = experiment: THP1-Dual monocyte reporter, NF-kappa-B readout (x4A); format: cell-based
Experimental: Immune modulation functions of immodulator peptides were measured using the monocyte reporter cell line THP1-Dual (Invivogen, San Diego, CA), which provides convenient readouts for STING and NF-kappa-B pathways. Optionally, succinic acid, cytokine and chemokine production were also measured. THP1-Dual cell line was obtained from Invivogen. Cells were grown in a T-75 flask in RPMI Medium containing 20% fetal bovine serum, blasticidin ([…]), zeocin ([…]) and penicillin-streptomycin at 37° C. in a humidified, 5% CO2 incubator. Cells ([…], 8,000 cells/well) were plated in a 96-well plate and incubated overnight at 37 °C in a humidified, 5% CO2 incubator. Next day, […] of compounds were added (quadruplicate wells). After 24 hour incubation with the compound, supernatants were harvested and stored at 4° C. prior to assay.
Each cell supernatant was assayed in quadruplicate. 20 uL of supernatant was used to measure NF-kappa-B (NFkB) and
STING activity using reagents QuantiBlu and QuantiLuc respectively, according to the manufacturer's recommendations (Invivogen, San Diego, CA). Succinic acid was measured by using a kit from Megazyme Inc (Cambridge, MA). Control value of activity was set to 100 in each assay. […] PAM3C=25 ng/ml PAM3CSK4 (TLR1/2 inducer); Poly(I:C)=10 ug/ml (TLR3 inducer); PAM2C=25 ng/ml PAM2CSK4 (TLR2/6 inducer); KIN14=4 uM KIN-1400 (RIG-I inducer); cytB=1 uM cytosporone B (Nur77 inducer); C-178=1 uM STING inhibitor; NFkBi=50 ug/ml NFkB inhibitor peptide; SB2021=10 uM p38MAPK inhibitor; *p<0.05, **p<0.01 vs IM3 control; #p<0.01 vs “no inducer” control; SUCC=succinic acid; nd=not done; Peptide was added to cells at 400 nM.
Peptides were added to cells at 400 nM. […]

rat scald model = experiment: Rat scald model, nephrilin plus or minus metal (x5A); format: in vivo, Sprague Dawley rats; conditions: male rats, burn, 4 mg/kg sc once daily days 1-7
Experimental: Experiment x5A. Nephrilin peptide (IM3N1) is a designed inhibitor of Rictor complex (also known as mTORC2), an evolutionarily conserved assembly believed to modulate responses to cellular stress. […] This study explores the effect of nephrilin plus iron formulations on clinically relevant outcomes in the rat scald model. Animals were treated with nephrilin by subcutaneous bolus injection on days 1-7 post-burn. Equimolar ferric iron in the formulation improved the positive systemic effects of nephrilin on kidney function, glycemic control, oxidative stress, early hyperinflammation, late inflammasome activation, hyperangiogenesis and body mass, all variables previously shown to bear upon clinically relevant burn injury outcomes. The rat scald model and measurement of clinically relevant variables are disclosed in U.S. Pat. No. 10,369,191. Adult Sprague Dawley rats of both sexes (250-300 gm, Charles River Laboratories, Wilmington, MA, USA) were injected with nephrilin peptide plus or minus equimolar metal (zinc, ferrous iron or ferric iron) once daily by subcutaneous bolus injection, days 1-7; Treatment group sizes were (n=8) for each sex unless otherwise indicated: group S=sham-treated; group B=burn+vehicle; group N1=burn+4 mg/kg nephrilin; group N1/Zn2=burn+4 mg/kg nephrilin/zinc chloride; group N1/Fe2=burn+4 mg/kg nephrilin/ferrous sulphate; groups N1/Fe3 (2, 4 or 8)=burn+2, 4, or 8 mg/kg nephrilin/equimolar ferric chloride. The first dose was administered after completion of the scald procedure. Injection volume was 400 uL. Control animals received the same volume of vehicle.
To make global comparisons of treatment efficacy, we converted values to z-scores. All scores within an efficacy class were averaged, allowing allocation of equal weight to efficacy classes. A composite z-score (average z score across all 7 effect classes) is shown in the last row of the table. This allows direct comparison of efficacy across treatment groups. The sham treatment involves manipulating the animals exactly as in the burn group, but without the burn treatment. The efficacy value for the sham (0.82) is thus the positive control. The negative control is the Burn+vehicle group (−0.61). […] Compared to vehicle or nephrilin treatment alone (−0.31), nephrilin with ferric iron (0.27) is at least twice as efficacious overall. Male rats in the scald model were exposed to vehicle, 2, 4 and 8 mg/kg nephrilin complexed with ferric iron.

N=C(N)NCCC[C@H](NC(=O)CNC(=O)[C@H](CCCCN)NC(=O)[C@H](CO)NC(=O)[C@@H]1CCCN1C(=O)[C@H](CCCNC(=N)N)NC(=O)[C@H](CS)NC(=O)[C@H](CCC(N)=O)NC(=O)[C@H](CCCCN)NC(=O)[C@H](CCCCN)NC(=O)[C@H](CCCCN)NC(=O)[C@H](Cc1ccc(O)cc1)NC(=O)[C@H](Cc1ccccc1)NC(=O)CNC(=O)[C@H](CCCCN)NC(=O)[C@@H](N)CCCCN)C(=O)N[C@@H](CCCCN)C(=O)N[C@@H](CCCNC(=N)N)C(=O)NCC(=O)N[C@@H](Cc1ccccc1)C(=O)N[C@@H](CS)C(=O)N[C@@H](Cc1c[nH]c2ccccc12)C(=O)O [IM3] (H-KKGFYKKKQCRPSKGRKRGFCW-OH; N-terminus and C-terminus assumed)
fluorescence ([1]; Calcium): 48,822±11,990 | fluorescence ([1]; Copper): 13,644±5566 | fluorescence ([1]; EDTA-treated control): 2,251±1,186 | fluorescence ([1]; Ferrous iron): 170,441±11,264 | NFkB (NF-kappa-B (NFkB); peptide 400 nM + KIN1400 (= 100)): 100 | NFkB (NF-kappa-B (NFkB); peptide 400 nM + KIN1400 + C-178 1 uM): 98.1 | NFkB (NF-kappa-B (NFkB); peptide 400 nM + KIN1400 + NFkBi 50 ug/ml): 104.4 | NFkB (NF-kappa-B (NFkB); peptide 400 nM + KIN1400 + SB2021 10 uM): 131.3** | NFkB (NF-kappa-B (NFkB); peptide 400 nM + KIN1400 + cytB 1 uM): 103.5 | NFkB (NF-kappa-B (NFkB); peptide 400 nM + PAM2C (= 100)): 100 | NFkB (NF-kappa-B (NFkB); peptide 400 nM + PAM2C + C-178 1 uM): 108.0** | NFkB (NF-kappa-B (NFkB); peptide 400 nM + PAM2C + NFkBi 50 ug/ml): 118.7* | NFkB (NF-kappa-B (NFkB); peptide 400 nM + PAM2C + SB2021 10 uM): 65.4** | NFkB (NF-kappa-B (NFkB); peptide 400 nM + PAM2C + cytB 1 uM): 99.8 | NFkB (NF-kappa-B (NFkB); peptide 400 nM + PAM3C + C-178 1 uM): 561 | NFkB (NF-kappa-B (NFkB); peptide 400 nM + PAM3C + NFkBi 50 ug/ml): 458** | NFkB (NF-kappa-B (NFkB); peptide 400 nM + PAM3C + SB2021 10 uM): 296** | NFkB (NF-kappa-B (NFkB); peptide 400 nM + PAM3C + cytB 1 uM): 576 | NFkB (NF-kappa-B (NFkB); peptide 400 nM + PAM3C, control = 100): 575 | NFkB (NF-kappa-B (NFkB); peptide 400 nM, no inducer, control = 100): 94**

RGVTEDYLRLETLVQKVVSKGFYKKKQCRPSKGRKRGFCW [IM3N1]
1: early inflammation (24-hr plasma IL-6) (rat scald model): 50.6 ± 6.1 pg/mL | 2a: 14-day plasma inflammasome marker IL18 (rat scald model): 178.1 ± 19.3 pg/mL | 2b: 14-day plasma inflammasome marker IL1b (rat scald model): 124.3 ± 132 pg/mL | 3a: 14-day plasma hyperangiogenesis marker VEGF-A (rat scald model): 56.1 ± 11.7 pg/mL | 3b: 14-day plasma hyperangiogenesis marker CCL5 (rat scald model): 609.7 ± 283 pg/mL | 3c: 14-day plasma hyperangiogenesis marker CXCL5 (rat scald model): 1910 ± 380 pg/mL | 4: glycemic control, 14-day GTT (AUC) (rat scald model): 139.3 ± 48.6 mg·dL·h | 5: kidney function, 14-day plasma creatinine (rat scald model): 0.34 ± 0.13 mg/dL | 6: systemic oxidative stress, 14-day plasma OHDG (rat scald model): 585 ± 137 pg/mL | 7: weight loss (slope) (rat scald model): 2.32 ± 1.01 | 3d: hyperangiogenesis marker PctRedPix (rat scald model): 16.51 ± 3.02 | Avg: composite z-score (average z score across all 7 effect classes) (rat scald model; listed as N1, 4 mg/kg): −0.31 ± 0.35 | Avg: composite z-score (average z score across all 7 effect classes) (rat scald model; listed as nephrilin, 4 mg/kg): −0.31

— patent US12102685B2, “Immodulator peptides covalently modified with small molecules” (priority 2020, dated 2024)
